# In ChEMBL document CHEMBL1201862, “PubChem BioAssay data set” (2004):
#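 Method: 48-hour compound exposure of cells in 96-well plates, five concentrations, linear interpolation of endpoints. Here, GI50 denotes the concentration required for 50% inhibition of growth.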 Calls of active or inactive are those of the source. Rule as the data show it: active = GI50 up to about 1.1 µM and inactive = higher. Peptide text beside a SMILES is read from it.
# What was measured:
# Assay in all cases: inhibition of tumour cell growth, NCI panel, 48 h
# HOP-92 = test system: HOP-92
# IGROV-1 = test system: IGROV-1
# ACHN = test system: ACHN
# U-251 = test system: U-251
# HOP-62 = test system: HOP-62
# MDA-MB-231 = test system: MDA-MB-231
# OVCAR-3 = test system: OVCAR-3
# RXF 393 = test system: RXF 393
# 786-0 = test system: 786-0
# SF-268 = test system: SF-268
# HCT-116 = test system: HCT-116
# SF-539 = test system: SF-539
# SR = test system: SR
# MCF7 = test system: MCF7
# SK-MEL-2 = test system: SK-MEL-2
# A498 = test system: A498
# OVCAR-5 = test system: OVCAR-5
# Malme-3M = test system: Malme-3M
# UACC-62 = test system: UACC-62
# NCI-H226 = test system: NCI-H226
SMILES,GI50 (HOP-92),GI50 (IGROV-1),GI50 (ACHN),GI50 (U-251),GI50 (HOP-62),GI50 (MDA-MB-231),GI50 (OVCAR-3),GI50 (RXF 393),GI50 (786-0),GI50 (SF-268),GI50 (HCT-116),GI50 (SF-539),GI50 (SR),GI50 (MCF7),GI50 (SK-MEL-2),GI50 (A498),GI50 (OVCAR-5),GI50 (Malme-3M),GI50 (UACC-62),GI50 (NCI-H226)
Nc1c(S(=O)(=O)O)cc(Nc2cccc(S(N)(=O)=O)c2)c2c1C(=O)c1ccccc1C2=O,> 100 µM (inactive),> 100 µM (inactive),> 100 µM (inactive),46.5 µM (inactive),23.4 µM (inactive),> 100 µM (inactive),83.9 µM (inactive),74.3 µM (inactive),62.5 µM (inactive),> 100 µM (inactive),> 100 µM (inactive),> 100 µM (inactive),> 100 µM (inactive),> 100 µM (inactive),75.7 µM (inactive),> 100 µM (inactive),> 100 µM (inactive),36.5 µM (inactive),24.2 µM (inactive),> 100 µM (inactive)
O=C(NNC(=S)Nc1ccc(Cl)cc1)C12CC3CC(CC(C3)C1)C2,11.3 µM (inactive),3.34 µM (inactive),4.19 µM (inactive),3.6 µM (inactive),11.2 µM (inactive),3.88 µM (inactive),2.45 µM (inactive),14.7 µM (inactive),5.15 µM (inactive),6.05 µM (inactive),2.57 µM (inactive),3.93 µM (inactive),1.04 µM (active),3.37 µM (inactive),14.3 µM (inactive),4.82 µM (inactive),20.3 µM (inactive),7.98 µM (inactive),3.88 µM (inactive),10.7 µM (inactive)
O=C(CCc1ccc(O)c(O)c1)NCCc1cc(O)c(O)c(O)c1,> 100 µM (inactive),54.1 µM (inactive),33.8 µM (inactive),17.9 µM (inactive),45.7 µM (inactive),14.5 µM (inactive),19.8 µM (inactive),66.7 µM (inactive),18.6 µM (inactive),41.1 µM (inactive),18.6 µM (inactive),> 100 µM (inactive),26.9 µM (inactive),8.93 µM (inactive),21.8 µM (inactive),> 100 µM (inactive),61.2 µM (inactive),> 100 µM (inactive),90.8 µM (inactive),34.3 µM (inactive)
NCCCc1c(-c2ccccc2)[nH]c(N)nc1=O,> 100 µM (inactive),> 100 µM (inactive),> 100 µM (inactive),> 100 µM (inactive),> 100 µM (inactive),> 100 µM (inactive),> 100 µM (inactive),> 100 µM (inactive),> 100 µM (inactive),> 100 µM (inactive),> 100 µM (inactive),> 100 µM (inactive),> 100 µM (inactive),> 100 µM (inactive),> 100 µM (inactive),> 100 µM (inactive),> 100 µM (inactive),> 100 µM (inactive),> 100 µM (inactive),> 100 µM (inactive)
CC[C@@]1(O)C(=O)OCc2c1cc1n(c2=O)Cc2c-1nc1ccccc1c2/C=N\NC(=O)C[n+]1ccccc1,3.14 µM (inactive),7.08 µM (inactive),0.0531 µM (active),0.261 µM (active),0.164 µM (active),64.6 µM (inactive),7.78 µM (inactive),0.76 µM (active),0.231 µM (active),0.115 µM (active),0.783 µM (active),0.0752 µM (active),0.0411 µM (active),0.0735 µM (active),37.6 µM (inactive),2.78 µM (inactive),6.18 µM (inactive),3.95 µM (inactive),0.0541 µM (active),0.991 µM (active)
Cc1nc(O)c(O)c(CN2CCCCC2)n1,> 100 µM (inactive),> 100 µM (inactive),> 100 µM (inactive),> 100 µM (inactive),> 100 µM (inactive),> 100 µM (inactive),> 100 µM (inactive),> 100 µM (inactive),> 100 µM (inactive),> 100 µM (inactive),> 100 µM (inactive),> 100 µM (inactive),> 100 µM (inactive),> 100 µM (inactive),> 100 µM (inactive),> 100 µM (inactive),> 100 µM (inactive),> 100 µM (inactive),> 100 µM (inactive),> 100 µM (inactive)
Cc1ccc2c(c1)Nc1cc(C(F)(F)F)ccc1[PH]2=O (stereo not given),14.2 µM (inactive),25.9 µM (inactive),16.6 µM (inactive),27.2 µM (inactive),29.1 µM (inactive),13.7 µM (inactive),30 µM (inactive),23.2 µM (inactive),66.4 µM (inactive),34 µM (inactive),42.2 µM (inactive),21.8 µM (inactive),37.4 µM (inactive),9.59 µM (inactive),31 µM (inactive),9.53 µM (inactive),50.2 µM (inactive),31.8 µM (inactive),10.5 µM (inactive),21.3 µM (inactive)
Cc1nc2c(=O)n(C)c(=O)nc-2n(CCO)c1C,> 100 µM (inactive),> 100 µM (inactive),> 100 µM (inactive),> 100 µM (inactive),> 100 µM (inactive),> 100 µM (inactive),> 100 µM (inactive),> 100 µM (inactive),> 100 µM (inactive),> 100 µM (inactive),> 100 µM (inactive),> 100 µM (inactive),> 100 µM (inactive),> 100 µM (inactive),> 100 µM (inactive),> 100 µM (inactive),> 100 µM (inactive),> 100 µM (inactive),> 100 µM (inactive),> 100 µM (inactive)
CC(=O)N1CCn2c1nc1cc(Cl)ccc12,24.9 µM (inactive),37.6 µM (inactive),34.4 µM (inactive),37.8 µM (inactive),19.4 µM (inactive),34.5 µM (inactive),95.1 µM (inactive),20.8 µM (inactive),> 100 µM (inactive),32.2 µM (inactive),44 µM (inactive),26.4 µM (inactive),> 100 µM (inactive),> 100 µM (inactive),26.1 µM (inactive),> 100 µM (inactive),> 100 µM (inactive),> 100 µM (inactive),33.5 µM (inactive),94.8 µM (inactive)
Nc1ncc(N)c(NCC2(CO)CC(CCc3ccccc3)C2)n1 (stereo not given),3.39 µM (inactive),7.94 µM (inactive),12.1 µM (inactive),6.58 µM (inactive),14.7 µM (inactive),4.65 µM (inactive),2.26 µM (inactive),12.5 µM (inactive),8.47 µM (inactive),5.58 µM (inactive),6.55 µM (inactive),2.7 µM (inactive),1.08 µM (active),3.37 µM (inactive),6.95 µM (inactive),13.5 µM (inactive),14.7 µM (inactive),11 µM (inactive),5.81 µM (inactive),5.83 µM (inactive)
CN(Cc1cnc2nc(N)nc(N)c2n1)c1ccc(C(=O)NCCCC(=O)O)cc1,> 100 µM (inactive),16.1 µM (inactive),6.78 µM (inactive),77.3 µM (inactive),58.6 µM (inactive),> 100 µM (inactive),> 93.5 µM (inactive),> 100 µM (inactive),12.5 µM (inactive),29.9 µM (inactive),3.39 µM (inactive),8.75 µM (inactive),4.99 µM (inactive),5.02 µM (inactive),> 100 µM (inactive),> 100 µM (inactive),> 100 µM (inactive),95.9 µM (inactive),12.6 µM (inactive),> 37.5 µM (inactive)
COc1cccc2c1C(=O)c1c(O)c3c(c(O)c1C2=O)C[C@@](O)(/C(C)=N\O)C[C@@H]3OC1CC(N)C(O)C(C)O1 (stereo not given in full),1.08 µM (active),0.76 µM (active),1.9 µM (inactive),0.766 µM (active),1.24 µM (inactive),2.51 µM (inactive),1.45 µM (inactive),1.41 µM (inactive),1.06 µM (active),0.931 µM (active),0.883 µM (active),0.931 µM (active),0.0615 µM (active),0.289 µM (active),1.1 µM (active),0.834 µM (active),2.7 µM (inactive),0.755 µM (active),1.12 µM (inactive),1.81 µM (inactive)
CC(=O)NC(CS)C(=O)NC(CO)C(=O)NC(CO)C(=O)NC(Cc1c[nH]c2ccccc12)C(=O)N1CCCC1C(=O)NC(CO)C(=O)NC(Cc1c[nH]c2ccccc12)C(=O)NC(Cc1c[nH]cn1)C(=O)NC(CO)C(=O)NC(Cc1c[nH]c2ccccc12)C(=O)NCC(=O)NCC(=O)NC(C)C(=O)NC(CCC(N)=O)C(=O)NC(CCCCN)C(=O)NC(C)C(=O)NC(CCCNC(=N)N)C(=O)NC(CCCCN)C(N)=O (stereo not given) (Ac-CSSWPSWHSWGGAQKARK-NH2; configuration not given here),> 50 µM (inactive),> 50 µM (inactive),17.7 µM (inactive),13 µM (inactive),> 50 µM (inactive),8.49 µM (inactive),> 50 µM (inactive),10 µM (inactive),10.1 µM (inactive),16.7 µM (inactive),34 µM (inactive),17.1 µM (inactive),11.8 µM (inactive),18.9 µM (inactive),26.4 µM (inactive),> 50 µM (inactive),> 50 µM (inactive),10.8 µM (inactive),10.9 µM (inactive),> 50 µM (inactive)
